The source made the active and inactive calls. The calls are words filed in the database; no cut-off is given here.

One data set has as its target T1, Bile acid receptor (Homo sapiens, UniProt Q96RI1).
T1 sequence (Q96RI1 whole entry): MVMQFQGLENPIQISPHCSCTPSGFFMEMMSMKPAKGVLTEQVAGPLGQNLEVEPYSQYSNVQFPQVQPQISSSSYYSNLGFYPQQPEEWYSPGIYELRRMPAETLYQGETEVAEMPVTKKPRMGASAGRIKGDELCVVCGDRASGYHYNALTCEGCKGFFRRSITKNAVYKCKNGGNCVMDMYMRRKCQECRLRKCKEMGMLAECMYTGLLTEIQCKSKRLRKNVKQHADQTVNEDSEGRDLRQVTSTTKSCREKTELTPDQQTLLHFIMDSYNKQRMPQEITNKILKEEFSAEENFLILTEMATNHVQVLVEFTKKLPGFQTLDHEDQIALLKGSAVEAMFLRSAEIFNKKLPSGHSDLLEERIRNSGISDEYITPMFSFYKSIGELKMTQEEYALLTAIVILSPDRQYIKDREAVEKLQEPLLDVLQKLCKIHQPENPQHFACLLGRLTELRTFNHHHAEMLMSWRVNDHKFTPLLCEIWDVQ
The experiment in a line: Agonist activity at FXR-LBD (unknown origin) assessed as induction of coactivator SRC-1 peptide recruitment measured by TR-FRET assay. In general terms: TR-FRET usually uses a lanthanide donor and a delayed reading to cut background.

Another data set has as its system Mus musculus. The experiment in a line: Anti-NASH activity against high fat (HF) diet-induced nonalcoholic steatohepatitis in leptin-deficient ob/ob mouse model assessed as reduction in liver cholesterol level at 3 mg/kg, po administered once daily from week 5 to 10. It counts as functional, organism-based.
Data set [1] has as its target T2, G-protein coupled bile acid receptor 1 (Homo sapiens, UniProt Q8TDU6).
T2 sequence (Q8TDU6 whole entry): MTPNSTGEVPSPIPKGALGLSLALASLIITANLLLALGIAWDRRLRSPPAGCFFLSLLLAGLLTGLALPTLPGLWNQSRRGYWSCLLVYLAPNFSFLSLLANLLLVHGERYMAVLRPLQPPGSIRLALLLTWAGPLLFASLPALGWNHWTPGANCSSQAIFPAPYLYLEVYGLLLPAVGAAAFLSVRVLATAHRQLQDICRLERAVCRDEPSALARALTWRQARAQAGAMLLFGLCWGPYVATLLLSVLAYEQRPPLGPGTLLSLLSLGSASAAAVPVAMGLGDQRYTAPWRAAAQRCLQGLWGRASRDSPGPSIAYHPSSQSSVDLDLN
The experiment in a line: Agonist activity in human GPBAR1 assessed as increase in intracellular cAMP level. It counts as functional, cell-based. Background: Changes in cAMP serve as a functional read-out for many G protein-coupled receptors.

In a further data set the target is Estrogen receptor beta (Homo sapiens, UniProt Q92731). The experiment in a line: Agonist activity at estrogen receptor beta (unknown origin).
Chain of Estrogen receptor beta (Q92731 whole entry): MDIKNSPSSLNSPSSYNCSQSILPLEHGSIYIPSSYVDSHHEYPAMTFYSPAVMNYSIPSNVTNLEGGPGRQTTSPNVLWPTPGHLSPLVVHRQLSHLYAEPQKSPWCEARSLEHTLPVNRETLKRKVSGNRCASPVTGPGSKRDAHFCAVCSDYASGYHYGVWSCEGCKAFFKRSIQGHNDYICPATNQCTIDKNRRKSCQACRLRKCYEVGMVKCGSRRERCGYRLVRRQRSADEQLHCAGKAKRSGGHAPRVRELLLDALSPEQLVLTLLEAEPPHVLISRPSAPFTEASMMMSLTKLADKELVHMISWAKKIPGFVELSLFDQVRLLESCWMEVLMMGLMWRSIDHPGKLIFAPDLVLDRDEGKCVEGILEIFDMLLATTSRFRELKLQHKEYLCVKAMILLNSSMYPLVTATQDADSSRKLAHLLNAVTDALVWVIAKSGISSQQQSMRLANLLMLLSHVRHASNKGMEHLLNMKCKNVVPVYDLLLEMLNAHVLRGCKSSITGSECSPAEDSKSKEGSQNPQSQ
Data set [2] can be described thus: Clearance in male Beagle dog at 1 mg/kg, iv measured by LC-MS/MS analysis. It counts as ADME, organism-based, Canis lupus familiaris. Particulars: in vivo.
Data set [3] can be described thus: Drug recovery in lung of male Sprague-Dawley rat at 4.5 mg/kg, po administered as C14-lableled compound and assessed as radioactivity and measured at 0.25 hrs. It counts as ADME, organism-based. Particulars: in vivo.
A short description of data set [4]: Drug recovery in skin of male Sprague-Dawley rat at 4.5 mg/kg, po administered as C14-lableled compound and assessed as radioactivity and measured at 6 hrs. It counts as ADME, organism-based, Skin of body. Particulars: in vivo, BLD = below limit of detection.
A short description of data set [5]: Drug recovery in heart of male Sprague-Dawley rat at 4.5 mg/kg, po administered as C14-lableled compound and assessed as radioactivity and measured at 24 hrs. It counts as ADME, organism-based. Particulars: in vivo, BLD = below limit of detection.
Data set [6] is described as follows: Drug recovery in spleen of male Sprague-Dawley rat at 4.5 mg/kg, po administered as C14-lableled compound and assessed as radioactivity and measured at 24 hrs. It counts as ADME, organism-based. Particulars: in vivo, BLD = below limit of detection.
Data set [7] can be described thus: Mutagenecity in Salmonella typhimurium TA1535 measured by Ames test. It counts as toxicity. Particulars: salmonella enterica subsp. enterica serovar typhimurium. A general note: In the Ames test, an excess of revertant colonies over the control signals mutagenicity.

For `O=C(O)c1ccc2c(c1)Oc1ccc(OCc3c(-c4c(Cl)cccc4Cl)noc3C3CC3)nc1C1(CC1)C2`, the EC50 is 0.00137 µM at Bile acid receptor, > 10 µM in [1] and > 10 µM at Estrogen receptor beta. Further, the outcome with Mus musculus was Active. Also, the clearance in [2] came to 18.4 mL/min/kg. Besides, the Drug recovery in data set [3] is listed as 868 ngequiv/g; in data set [4], “Bld”; in [5] it was “Bld”; in data set [6], “Bld”. Further, the Activity result in data set [7] is “Non-Toxic”.

The term EC50 denotes the midpoint of the concentration-response curve. By clearance is commonly meant the volume of plasma or blood freed of the substance per unit of time. The low end stands for a low capacity for elimination, the high end for a high capacity for elimination.
